# Experimental data as given in patent publication US20170313669A1, “LACTONE COMPOUNDS AND METHODS OF MAKING AND USING SAME” (THE SCRIPPS RESEARCH INSTITUTE, priority 2015, published 2017).
# System: human lymphoblast cell lines (LCLs)
# Test: Lyso-PS content of treated LCLs
# Format: cell-based
# Settings: 1 μM, 4 h
# Experimental: ABHD16A^+/+, ABHD16A^+/+, and ABHD16A^−/− littermates of 10 weeks age were anaesthetized by isoflurane and killed by decapitation. The tissues (brains were sliced laterally into two hemispheres; entire spinal cord) were harvested, weighed, and immediately submerged in liquid N2. Tissues (one half brain or entire spinal cord) were then Dounce-homogenized in 8 mL of 2:1:1 (vol/vol/vol) CHCl3: MeOH: PBS containing the internal standard mix (1 nmol 17:1 FFA, and 100 pmol each of 17:1 lyso-PS, 17:0-20:4 PS, 17:1 lyso-PC, 17:0-20:4 PC, 17:0-20:4 PE and 50 pmol of 2-AG-d5). Homogenates were transferred to a glass vial and centrifuged at 2800×g for 10 minutes to separate the two phases. The organic phase (bottom) was removed, 200 μL of formic acid was added to acidify the aqueous homogenate (to enhance extraction of phospholipids), and CHCl3 was added to make up 8 mL volume. […]
# All the metabolites analyzed in this study were quantified using the multiple reaction monitoring (MRM) methods the targeted LC/MS analysis was done using an Agilent Technologies 6460 Triple Quad LC/M with an Agilent Technologies 1290 Infinity series quaternary pump. All data was collected using the LC/MS Data Acquisition mode of the Mass Hunter Workstation Software version B.05.00 build 5.0.5027.0 SP, and analyzed using the Quantitative Analysis mode of the same software. […]
structure (smiles),measurement,setting,value
"CCCCCCCCCCCCCC1OC(=O)/C1=C\CCCCC(N)=O (centres unmarked) [KC01, (Z)-6-(2-oxo-4-tridecyloxetan-3-ylidene)hexanamide]",secreted lyso-PSs,ABHD12-null LCL,significantly lowered
same,cellular lyso-PSs,all LCLs,decreased cellular lyso-PSs
